Converted amounts (≈) assume the structure as drawn.
Columns and labels:
[1] = system: rabbit washed platelet suspension; experiment: Platelet aggregation inhibitory effect (collagen-induced, washed platelets); assay type: cell-based; conditions: collagen as aggregation inducing agent, by interpolation
Method: For the extracts and purified materials prepared in Production Examples 1 to 5 (hereinafter, may be referred to as “sample”), inhibitory effect on platelet aggregation was tested as follows.
First, rabbit blood, which was collected with the addition of 1/10 amount of 77 mmol/L EDTA (pH 7.4), was centrifuged (180×g, 10 minutes, room temperature) to obtain platelet suspension. Next, the platelet suspension was centrifuged (810×g, 10 minutes, 4° C.), and the supernatant was removed to obtain platelet. This was suspended in platelet washing solution (0.15 mol/L sodium chloride: 0.15 mol/L Tris-HCL buffer (pH 7.4): 77 mmol/L EDTA (pH7.4)=90:8:2), centrifuged in the same way as mentioned above. […]
Next, to 222 μL of the prepared washed platelet suspension, 1 μL of 200 mmol/L calcium chloride solution was added and allowed to react at 37° C. for 1 minute. […] Separately, rate of platelet aggregation, B, was determined in a similar operation to that mentioned above except that the solvent of sample solution was added instead of the sample solution. % Inhibition of platelet aggregation=[(B−A)/B]×100 <Formula 3> […]
Next, the sample concentration was reduced in a stepwise manner, and the above-mentioned percentage inhibition of platelet aggregation was measured. The sample concentration, at which 50% of platelet aggregation is inhibited, was determined by interpolation. […]

[2] = target: T1, hyaluronidase (Type IV-S, from bovine testis) (Bos taurus, UniProt Q2YDK3); experiment: Hyaluronidase activity inhibition assay; assay type: biochemical; conditions: pH 3.5, 37° C., by interpolation
T1 construct: hyaluronidase solution (Type IV-S (from bovine testis))
T1 sequence (Q2YDK3 1-553): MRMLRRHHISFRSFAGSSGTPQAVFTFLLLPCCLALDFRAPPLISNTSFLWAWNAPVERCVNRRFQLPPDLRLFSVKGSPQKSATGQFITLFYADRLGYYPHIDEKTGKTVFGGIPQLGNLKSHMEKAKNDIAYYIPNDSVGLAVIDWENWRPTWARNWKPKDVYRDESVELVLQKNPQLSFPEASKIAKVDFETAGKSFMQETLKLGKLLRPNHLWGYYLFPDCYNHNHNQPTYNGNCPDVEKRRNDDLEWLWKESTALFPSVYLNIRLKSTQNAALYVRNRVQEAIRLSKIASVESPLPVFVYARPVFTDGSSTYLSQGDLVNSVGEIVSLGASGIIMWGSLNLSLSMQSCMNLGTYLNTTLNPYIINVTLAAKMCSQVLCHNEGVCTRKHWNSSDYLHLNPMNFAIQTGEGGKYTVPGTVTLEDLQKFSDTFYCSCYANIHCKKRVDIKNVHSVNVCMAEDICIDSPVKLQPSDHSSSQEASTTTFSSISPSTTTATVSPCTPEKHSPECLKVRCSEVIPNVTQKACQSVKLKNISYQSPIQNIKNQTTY
Method: For the extracts and purified materials prepared in Production Examples 1 to 5 (hereinafter, may be referred to as “sample”), inhibitory effect on hyaluronidase activity was tested as follows.
First, 0.1 mL of hyaluronidase solution (Type IV-S (from bovine testis; SIGMA 400 NF units/mL) was added to 0.1 mol/L acetic acid buffer (pH 3.5) in which each sample was dissolved, and allowed to react at 37° C. for 20 minutes.
Next, 0.2 mL of 2.5 mmol/L calcium chloride was added as an activating agent and allowed to react at 37° C. for 20 minutes. To this solution, 0.5 mL of 0.4 mg/mL potassium hyaluronate solution (from rooster comb) was added and allowed to react at 37° C. for 40 minutes. […] After that, absorbance at the wavelength of 585 nm was determined.
Next, similar operations and absorbance determination were performed without addition of enzyme. Further, as a control, using distillated water instead of sample solution, similar operations and absorbance determination were performed.
From the results of the measurements mentioned above, the percentage inhibition of hyaluronidase activity was calculated according to the following formula 1: % Inhibition of hyaluronidase activity=[1−(St−Sb)/(Ct−Cb)]×100 <Formula 1> […]
Next, the sample concentration was reduced in a stepwise manner, and the above-mentioned percentage inhibition of hyaluronidase activity was measured. […]

[3] = system: rat basophilic leukemia cells (RBL-2H3); experiment: Assay of inhibitory effect on hexosaminidase release (indicator of histamine release); assay type: cell-based; conditions: RBL-2H3, DNP-specific IgE / DNP-BSA stimulation; by interpolation
Method: For the extracts and purified materials prepared in Production Examples 1 to 5 (hereinafter, may be referred to as “sample”), inhibitory effect on hexosaminidase release was tested as follows. Since hexosaminidase is also released simultaneously upon release of to histamine inside a cell, the inhibitory effect on histamine release can be evaluated using hexosaminidase release as an indicator of histamine release.
First, rat basophilic leukemia cells (RBL-2H3) were cultured using a medium (S-MEM medium with 15% FBS; hereinafter the same) placed in 25 mL culture flasks, and then cells were collected by trypsin treatment. […]
Then, release was stopped by leaving the 96 well plate at rest on ice. […] After completion of the reaction, 250 μL of 0.1 mol/L Na2CO3/NaHCO3 was added to each well, and the absorbance at the wavelength of 415 nm was determined.
Next, as a blank test, the absorbance of a mixture of 10 μl it of cell supernatant and 250 μL of 0.1 mol/L Na2CO3/NaHCO3 at the wavelength of 415 nm was determined and was used for correction.
From the results of the measurements mentioned above, the percentage inhibition of hexosaminidase release was determined according to the following formula 2: % Inhibition of hexosaminidase release=[1−(B−C)/A]×100 <Formula 2> […]

Row | SMILES | IC50 ([1]; Oryctolagus cuniculus, Platelet, read-out: Sample concentration for 50% inhibition of platelet aggregation) [µg/mL] | IC50 ([2]; read-out: Sample concentration for 50% inhibition of hyaluronidase activity (converted)) [µM] | Sample concentration for 50% inhibition of platelet aggregation [1] [µg/mL] | Sample concentration for 50% inhibition of hexosaminidase release [3] [µg/mL] | Sample concentration for 50% inhibition of hyaluronidase activity [2] [µg/mL]
1 | CC1(C)C=Cc2c(ccc3c2OC[C@@H](c2ccc(O)cc2O)C3)O1 [Glabridin of Production Example 4, glabridin] | 400 (≈ 1230 µM) | 56.4 |  |  | 
2 | C=CC(C)(C)c1cc(/C=C/C(=O)c2ccc(O)cc2)c(OC)cc1O [Licochalcone A of Production Example 5, licochalcone A] |  |  | 79.7 | 23.5 | 17.2
